Experimental data: PMC11003488 (Journal of Enzyme Inhibition and Medicinal Chemistry, 2023)

Columns and labels:
Type in all cases: cell-based
[1] = system: UACC-257; test: NCI-60 SRB growth inhibition, one-dose and five-dose; conditions: Homo sapiens
[2] = system: NCI-H226; test: as above; conditions: Homo sapiens
[3] = system: SR; test: as above; conditions: Homo sapiens
[4] = system: OVCAR-3; test: as above; conditions: Homo sapiens
[5] = system: SK-MEL-2; test: as above; conditions: Homo sapiens, SK-MEL-2, read-out: percent growth inhibition
[6] = system: CCRF-CEM; test: as above; conditions: Homo sapiens
[7] = system: SNB-19; test: as above; conditions: Homo sapiens
[8] = system: PC-3; test: as above; conditions: Homo sapiens
[9] = system: MALME-3M; test: as above; conditions: Homo sapiens
[10] = system: EKVX; test: as above; conditions: Homo sapiens
[11] = system: RPMI-8226; test: as above; conditions: Homo sapiens
[12] = system: HL-60(TB); test: cells; conditions: Homo sapiens
[13] = system: IGROV1; test: NCI-60 SRB growth inhibition, one-dose and five-dose; conditions: Homo sapiens
[14] = system: SN12C; test: as above; conditions: Homo sapiens
[15] = system: T-47D; test: as above; conditions: Homo sapiens, T47D
[16] = system: CAKI-1; test: as above; conditions: Homo sapiens
[17] = system: U251; test: as above; conditions: Homo sapiens
[18] = system: RXF 393; test: as above; conditions: Homo sapiens
[19] = system: NCI-H322M; test: as above; conditions: Homo sapiens
[20] = system: MOLT-4; test: as above; conditions: Homo sapiens
[21] = system: OVCAR-4; test: as above; conditions: Homo sapiens
[22] = system: MCF7; test: as above; conditions: Homo sapiens
[23] = system: K-562; test: as above; conditions: Homo sapiens
[24] = system: ACHN; test: as above; conditions: Homo sapiens
[25] = system: OVCAR-8; test: as above; conditions: Homo sapiens, OVCAR-8, read-out: percent growth inhibition
[26] = system: A498; test: as above; conditions: Homo sapiens
[27] = system: HCT-15; test: as above; conditions: Homo sapiens
[28] = system: HCC-2998; test: as above; conditions: Homo sapiens
[29] = system: NCI-H23; test: as above; conditions: Homo sapiens
[30] = system: SF-268; test: as above; conditions: Homo sapiens
[31] = system: SK-MEL-28; test: as above; conditions: Homo sapiens
[32] = system: KM12; test: as above; conditions: Homo sapiens
[33] = system: NCI/ADR-RES; test: as above; conditions: Homo sapiens
[34] = system: LOX IMVI; test: as above; conditions: Homo sapiens
[35] = system: HS 578 T; test: as above; conditions: Homo sapiens
[36] = system: COLO 205; test: as above; conditions: Homo sapiens
[37] = system: M14; test: as above; conditions: Homo sapiens
[38] = system: HT29; test: as above; conditions: Homo sapiens
[39] = system: SNB-75; test: as above; conditions: Homo sapiens
[40] = system: 786-0; test: as above; conditions: Homo sapiens
[41] = system: MDA-MB-468; test: as above; conditions: Homo sapiens
[42] = system: NCI-H522; test: as above; conditions: Homo sapiens
[43] = system: MDA-MB-435; test: as above; conditions: Homo sapiens
[44] = read-out: percent growth inhibition

Compound: O=C(/C=C/c1cccnc1)c1cccc(NCc2csc3ccccc23)c1 [Compound 5d, (E)-1–(3-((benzo[b]thiophen-3-ylmethyl)amino)phenyl)-3-(pyridin-3-yl)prop-2-en-1-one]
- GI50 ([1]; UACC-257): 5.58 µM
- inhibition at 10 µM ([1]; UACC-257, read-out: percent growth inhibition): 105%
- GI50 ([2]; NCI-H226): 3.43 µM
- inhibition at 10 µM ([2]; NCI-H226, read-out: percent growth inhibition): 111%
- GI50 [3]: 2.51 µM
- GI50 ([4]; OVCAR-3): 3.19 µM
- inhibition at 10 µM ([4]; OVCAR-3, read-out: percent growth inhibition): 157%
- inhibition at 10 µM [5]: 74%
- GI50 [6]: 3.01 µM
- inhibition at 10 µM [6, 44]: 134%
- GI50 ([7]; SNB-19): 3.86 µM
- inhibition at 10 µM ([7]; SNB-19, read-out: percent growth inhibition): 134%
- GI50 ([8]; PC-3): 3.76 µM
- inhibition at 10 µM ([8]; PC-3, read-out: percent growth inhibition): 99.2%
- GI50 [9]: 5.92 µM
- inhibition at 10 µM [9, 44]: 104%
- GI50 [10]: 3.98 µM
- inhibition at 10 µM [10, 44]: 106%
- GI50 ([11]; RPMI-8226): 1.99 µM
- inhibition at 10 µM ([11]; RPMI-8226, read-out: percent growth inhibition): 119%
- GI50 ([12]; HL-60): 2.73 µM
- inhibition at 10 µM ([12]; HL-60, read-out: percent growth inhibition): 135%
- GI50 ([13]; IGROV-1): 3.32 µM
- inhibition at 10 µM ([13]; IGROV-1, read-out: percent growth inhibition): 108%
- GI50 [14]: 3.02 µM
- inhibition at 10 µM [14, 44]: 128%
- GI50 [15]: 2.83 µM
- inhibition at 10 µM [15, 44]: 91.2%
- GI50 ([16]; CAKI-1): 9.3 µM
- inhibition at 10 µM ([16]; CAKI-1, read-out: percent growth inhibition): 98.3%
- GI50 ([17]; U-251): 1.92 µM
- inhibition at 10 µM ([17]; U-251, read-out: percent growth inhibition): 198%
- GI50 ([18]; RXF 393): 4.67 µM
- inhibition at 10 µM ([18]; RXF 393, read-out: percent growth inhibition): 177%
- GI50 [19]: 11.5 µM
- inhibition at 10 µM [19, 44]: 42.6%
- GI50 ([20]; MOLT-4): 3.16 µM
- inhibition at 10 µM ([20]; MOLT-4, read-out: percent growth inhibition): 114%
- GI50 ([21]; OVCAR-4): 4.27 µM
- inhibition at 10 µM ([21]; OVCAR-4, read-out: percent growth inhibition): 82.5%
- GI50 ([22]; MCF7): 1.58 µM
- inhibition at 10 µM ([22]; MCF7, read-out: percent growth inhibition): 176%
- GI50 ([23]; K562): 3.14 µM
- inhibition at 10 µM ([23]; K562, read-out: percent growth inhibition): 111%
- GI50 [24]: 2.82 µM
- inhibition at 10 µM [24, 44]: 155%
- inhibition at 10 µM [25]: 119%
- GI50 ([26]; A498): 12.1 µM
- inhibition at 10 µM ([26]; A498, read-out: percent growth inhibition): 36.5%
- GI50 ([27]; HCT-15): 1.92 µM
- inhibition at 10 µM ([27]; HCT-15, read-out: percent growth inhibition): 141%
- GI50 ([28]; HCC 2998): 3.66 µM
- inhibition at 10 µM ([28]; HCC 2998, read-out: percent growth inhibition): 188%
- GI50 ([29]; NCI-H23): 3.94 µM
- inhibition at 10 µM ([29]; NCI-H23, read-out: percent growth inhibition): 139%
- GI50 ([30]; SF-268): 12 µM
- inhibition at 10 µM ([30]; SF-268, read-out: percent growth inhibition): 69.7%
- GI50 ([31]; SK-MEL-28): 3.55 µM
- inhibition at 10 µM ([31]; SK-MEL-28, read-out: percent growth inhibition): 145%
- GI50 ([32]; KM12): 3.58 µM
- inhibition at 10 µM ([32]; KM12, read-out: percent growth inhibition): 158%
- GI50 [33]: 2.15 µM
- inhibition at 10 µM [33, 44]: 101%
- GI50 [34]: 1.69 µM
- inhibition at 10 µM [34, 44]: 198%
- GI50 [35]: 4.49 µM
- inhibition at 10 µM [35, 44]: 76.9%
- GI50 ([36]; COLO 205): 11.6 µM
- inhibition at 10 µM ([36]; COLO 205, read-out: percent growth inhibition): 86.5%
- GI50 ([37]; M14): 4.14 µM
- inhibition at 10 µM ([37]; M14, read-out: percent growth inhibition): 129%
- GI50 ([38]; HT-29): 3.12 µM
- inhibition at 10 µM ([38]; HT-29, read-out: percent growth inhibition): 165%
- GI50 ([39]; SNB-75): 3.34 µM
- inhibition at 10 µM ([39]; SNB-75, read-out: percent growth inhibition): 69.9%
- GI50 ([40]; 786-0): 8.65 µM
- inhibition at 10 µM ([40]; 786-0, read-out: percent growth inhibition): 182%
- GI50 ([41]; MDA-MB-468): 1.82 µM
- inhibition at 10 µM ([41]; MDA-MB-468, read-out: percent growth inhibition): 162%
- GI50 ([42]; NCI-H522): 1.78 µM
- inhibition at 10 µM ([42]; NCI-H522, read-out: percent growth inhibition): 170%
- GI50 ([43]; MDA-MB-435): 2.55 µM
- inhibition at 10 µM ([43]; MDA-MB-435, read-out: percent growth inhibition): 121%
